Our source for the Kd values is PMC2843614, “Protein engineering of conger eel galectins by tracing of molecular evolution using probable ancestral mutants” (BMC Evolutionary Biology, 2010).

pKd: −log10 of the molar value. Read-outs that look alike come from different tables or passages of the source.

Common to all, as to experiment: frontal affinity chromatography (FAC)
One assay concerns the target T1, congerin II (ConII) (Conger myriaster, UniProt Q9YIC2).
T1 construct: full length, 135 residues (natural form N-acetylated); proto-type galectin, dimer
It counts as binding. The source says:
frontal affinity chromatography (FAC) on congerin II (ConII)

A further assay deals with T2, congerin I (ConI) (Conger myriaster, UniProt P26788).
T2 construct: full length, 136 residues (natural form N-acetylated); proto-type galectin, dimer
It counts as binding. The source says: frontal affinity chromatography (FAC) on congerin I (ConI)

The target of assay [1] is T3, Con-anc (probable ancestral form of congerins).
T3 construct: recombinant from plasmid pTV-Con-anc in Escherichia coli JM109; differs from ConI at 31 residues; purified by HCl-treated Sepharose 4B and HiTrap Q
It counts as binding, synthetic construct. The following applies: labelled compound (pyridylaminated sugar). The source says: frontal affinity chromatography (FAC) on Con-anc (probable ancestral form of congerins)

[2] abbreviates: labelled compound (pyridylaminated sugar).

T2 sequence (P26788 whole entry): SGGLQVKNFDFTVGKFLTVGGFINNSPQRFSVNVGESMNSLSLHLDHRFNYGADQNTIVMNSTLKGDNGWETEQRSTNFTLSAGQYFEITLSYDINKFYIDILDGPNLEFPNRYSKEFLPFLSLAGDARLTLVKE
T1 sequence (Q9YIC2 2-136): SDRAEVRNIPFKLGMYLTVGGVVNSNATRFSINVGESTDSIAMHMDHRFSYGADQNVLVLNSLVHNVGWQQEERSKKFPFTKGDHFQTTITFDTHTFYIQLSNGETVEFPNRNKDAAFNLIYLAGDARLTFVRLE

Turning to A-heptasaccharide [compound 48], the pKd was 4.38 at congerin II (ConII) (setting [2]), 4.77 on congerin I (ConI) (setting [2]), 4.25 in assay [1] and 5.60 in assay [1] (read-out: Con-anc-N/C/L5 / Kd).

Regarding `CC(=O)N[C@H]1[C@H]([C@H](O)[C@H](O)CO)OC(O[C@H]2[C@@H](O)[C@@H](CO)O[C@@H](O[C@@H]([C@H](O)[C@@H](O)CNc3ccccn3)[C@H](O)CO)[C@@H]2O)(C(=O)O)C[C@@H]1O` (stereo partly drawn) [compound 29], the pKd was 4.29 at congerin II (ConII) (setting [2]) and 3.62 in assay [1].

With `CC(=O)N[C@H]1[C@H](O[C@H]2[C@@H](O)[C@@H](CO)O[C@@H](O[C@@H]([C@H](O)[C@@H](O)CNc3ccccn3)[C@H](O)CO)[C@@H]2O)O[C@H](CO)[C@@H](O[C@@H]2O[C@@H](C)[C@@H](O)[C@@H](O)[C@@H]2O)[C@@H]1O[C@@H]1O[C@H](CO)[C@H](O)[C@H](O)[C@H]1O[C@@H]1O[C@@H](C)[C@@H](O)[C@@H](O)[C@@H]1O` [compound 46], the pKd on congerin II (ConII) is 4.43; on congerin I (ConI), 5.03; in assay [1], 4.36.

Turning to GM3 (NeuGc) [compound 30], the pKd at congerin II (ConII) (setting [2]) is 4.18; in assay [1], 3.71.

As for `CC(=O)N[C@H]1[C@H](O[C@H]2[C@@H](O)[C@@H](CO)O[C@@H](O[C@@H]([C@H](O)[C@@H](O)CNc3ccccn3)[C@H](O)CO)[C@@H]2O)O[C@H](CO)[C@@H](O[C@@H]2O[C@H](CO)[C@H](O)[C@H](O)[C@H]2O)[C@@H]1O[C@@H]1O[C@@H](C)[C@@H](O)[C@@H](O)[C@@H]1O` [compound 45, LNFP-III], the pKd at congerin II (ConII) is 3.91; at congerin I (ConI), 4.89; in assay [1] it was 3.77.

In the case of `CC(=O)N[C@H]1[C@H](O[C@H]2[C@@H](O)[C@@H](CO)O[C@@H](O[C@@H]([C@H](O)[C@@H](O)CNc3ccccn3)[C@H](O)CO)[C@@H]2O)O[C@H](CO)[C@@H](O[C@@H]2O[C@@H](C)[C@@H](O)[C@@H](O)[C@@H]2O)[C@@H]1O[C@@H]1O[C@H](CO)[C@H](O)[C@H](O)[C@H]1O` [compound 44], the pKd at congerin II (ConII) was 4.62; on congerin I (ConI) it was 5.36; in assay [1] it was 4.26; in assay [1] (read-out: Con-anc-L5 / Kd), 5.41.
